Measured values published in US8119641B2, “1H-furo[3,2-C]pyrazole compounds useful as kinase inhibitors” (Nerviano Medical Sciences S.R.L., priority 2006, dated 2012).

What was measured:
Aurora-2 = target: T1, Aurora-2 (Homo sapiens, UniProt O14965); assay: Inhibition assay of Aurora-2 activity (SPA); format: biochemical
T1 sequence (O14965 1-403): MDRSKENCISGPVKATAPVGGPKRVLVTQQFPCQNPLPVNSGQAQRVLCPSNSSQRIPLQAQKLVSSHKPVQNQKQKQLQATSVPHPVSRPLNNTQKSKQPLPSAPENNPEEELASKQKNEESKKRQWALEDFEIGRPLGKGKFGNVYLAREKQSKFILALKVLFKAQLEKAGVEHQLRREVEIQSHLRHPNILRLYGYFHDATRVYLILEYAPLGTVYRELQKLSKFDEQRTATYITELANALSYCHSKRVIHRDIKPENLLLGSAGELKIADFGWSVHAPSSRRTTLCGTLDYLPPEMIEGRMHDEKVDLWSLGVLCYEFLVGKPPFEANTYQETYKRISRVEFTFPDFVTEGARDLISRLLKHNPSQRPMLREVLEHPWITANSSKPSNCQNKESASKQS
Protocol: The inhibiting activity and the potency of selected compounds is determined through a method of assay based on the use of the SPA technology (Amersham Pharmacia Biotech).
The assay consists of the transfer of radioactivity labelled phosphate moiety by the kinase to a biotinylated substrate. The resulting 33P-labelled biotinylated product is allowed to bind to streptavidin-coated SPA beads (biotin capacity 130 pmol/mg), and light emitted was measured in a scintillation counter.
Inhibition Assay of Aurora-2 Activity
Kinase reaction: 8 μM biotinylated peptide (4 repeats of LRRWSLG), 10 μM ATP (0.5 uCi P^33γ-ATP), 7.5 ng Aurora 2, inhibitor in a final volume of 30 μl buffer (HEPES 50 mM pH 7.0, MgCl2 10 mM, 1 mM DTT, 0.2 mg/mL BSA, 3 μM orthovanadate) were added to each well of a 96 U bottom well plate. After 60 minutes at room temperature incubation, reaction was stopped and biotinylated peptide captured by adding 100 μl of bead suspension.
Stratification: 100 μl of CsCl 5 M were added to each well and let stand 4 hour before radioactivity was counted in the Top-Count instrument.
IC50 determination: inhibitors were tested at different concentrations ranging from 0.0015 to 10 μM. […]

[1] = tested on: human colon cancer cell line HCT-116; assay: In vitro cell proliferation assay; format: cell-based; details: HCT-116, 72 hours of treatment, read-out: Cell Antiproliferation IC50
Protocol: The compounds of the invention were further tested, in vitro to assess the anti-proliferative effect onto cell cultures.
In Vitro Cell Proliferation Assay
The human colon cancer cell line HCT-116 was seeded at 5000 cells/cm^2 in 24 wells plate (Costar) using F12 medium (Gibco) supplemented with 10% FCS (EuroClone, Italy) 2 mM L-glutamine and 1% penicillin/streptomycin and maintained at 37° C., 5% CO2 and 96% relative humidity. The following day, plates were treated in duplicates with 5 ul of an appropriate dilution of compounds starting from a 10 mM stock in DMSO. Two untreated control wells were included in each plate. After 72 hours of treatment, medium was withdrawn and cells detached from each well using 0.5 mL of 0.05% (w/v) Trypsin, 0.02% (w/v) EDTA (Gibco) Samples were diluted with 9.5 mL of Isoton (Coulter) and counted using a Multisizer 3 cell counter (Beckman Coulter). Data were evaluated as percent of the control wells, % of CTR=(Treated−Blank)/(Control−Blank). IC50 values were calculated by LSW/Data Analysis using Microsoft Excel sigmoidal curve fitting.

IC50 (Aurora-2): 6 nM | IC50 [1]: 5 nM
SMILES: CC(C)(NC(=O)c1cc2[nH]nc(NC(=O)c3ccccc3NC(=O)c3ccc[nH]3)c2o1)c1ccccc1 [(1), 3-{2-[(1H-Pyrrole-2-carbonyl)-amino]-benzoylamino}-1H-furo[3,2-c]pyrazole-5-carboxylic acid (1-methyl-1-phenyl-ethyl)-amide]
